From patent publication EP0358508A2, “Novel immunosuppressant compound” (MERCK & CO. INC., priority 1988, dated 1990)
“Also recorded” adds a separate entry of the source.

Experiments:
[1] = system: mouse T lymphocytes stimulated with the combination of ionomycin plus PMA; assay: T-cell proliferation assay (ionomycin plus PMA induced T-cell stimulation, tritiated thymidine uptake); type: cell-based, C57B1/6 mice
Description: The principle of this assay is to measure the proliferation of mouse T lymphocytes stimulated with the combination of ionomycin plus PMA. A positive sample in this assay will inhibit T-cell proliferation, as indicated by reduced tritiated thymidine uptake.
Spleens from C57B1/6 mice were taken under sterile conditions and gently dissociated in ice-cold RPMI 1640 culture medium (GIBCO, Grand Island, N.Y.) supplemented with 10% heat-inactivated fetal calf serum (GIBCO). Cells were pelleted by centrifugation at 1500 rpm for 8 minutes. Contaminating red cells were removed by treating the pellet with ammonium chloride lysing buffer (GIBCO) for 2 minutes at 4°C. […]
Purified T lymphocytes were resuspended at 2.5 x 10⁵ cells/ml in complete culture medium composed of RPMI 1640 medium with 10% heat-inactivated fetal calf serum, […] glutamine, 1 mM sodium pyruvate, 2 x 10⁻⁵ M 2-mercaptoethanol and 50 µg/ml gentamycin. […] The proliferation of T lymphocytes was assessed by measurement of tritiated thymidine incorporation. […] Radioactivity of filter discs corresponding to individual wells was measured by standard liquid scintillation counting methods (Beta counter). Mean counts per minute of replicate wells were calculated and the results expressed as percent inhibition of tritiated thymidine uptake (proliferation) as follows: [formula] […]

[2] = Physical characteristics: solubility; type: physicochemical; conditions: solvent methanol; qualitative
Description: White amorphous powder • 2. […] Molecular weight of 805, as determined by mass spectrometry consistent with a molecular ion at (m/z) 1093.6556 for the tetra-(trimethylsilyl) derivative and characteristic fragment ions at (m/z) 673 and 481.
White amorphous powder • 2. […] Molecular weight of 805, as determined by mass spectrometry consistent with a molecular ion at (m/z) 1021.6169 for the tri-(trimethylsilyl) derivative and characteristic fragment ions at (m/z) 675 and 483.

CCC[C@@H]1/C=C(\C)C[C@H](C)C[C@H](OC)[C@H]2O[C@@](O)(C(=O)C(=O)N3CCCC[C@H]3C(=O)O[C@H](/C(C)=C/[C@@H]3CC[C@@H](O)[C@H](OC)C3)[C@H](C)[C@@H](O)CC1=O)[C@H](C)C[C@@H]2OC [Tsukubamycin B]
inhibition of T-cell proliferation after addition of IL-2 ([1]; 50 units/ml of IL-2 (recombinant human IL-2) added at the initiation of culture): reversed | inhibition of T-cell activation / % inhibition of tritiated thymidine uptake (proliferation) ([1]; purified mouse spleen T lymphocytes, ionomycin 250 ng/ml plus PMA 10 ng/ml, 44 hours culture plus 4 hours pulse, various concentrations, no numbers given): indicated its immunosuppressant properties; also recorded: positive inhibition of T-cell activation | Solubility [2]: Solubility in methanol
